Data on one molecule can be found in publication doi:10.1101/2025.10.16.682360v1, “Live-Cell Chemoproteomic Profiling Identifies the Uncharacterised Protein YbaA as a Direct Target of Ciprofloxacin in Escherichia coli” (biorxiv, 2025).

The target of assay [1] is T1, YbaA (Escherichia coli, UniProt P0AAQ6).
T1 construct: C-terminal His10 tag; purified by IMAC and size exclusion chromatography; printed peptide IVECWASDVPDGKVTDFR
T1 sequence (P0AAQ6 1-117): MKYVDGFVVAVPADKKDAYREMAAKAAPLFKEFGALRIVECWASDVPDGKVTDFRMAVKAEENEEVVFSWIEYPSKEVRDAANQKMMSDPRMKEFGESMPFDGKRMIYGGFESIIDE
Put plainly: surface plasmon resonance. The format is binding. From the text: surface plasmon resonance on YbaA | Direct binding of CFX to YjdN or YbaA was further assessed by surface plasmon resonance
A general note: Surface plasmon resonance follows binding to a sensor surface in real time, without labels.

In assay [2] the target is T2, YjdN (Escherichia coli, UniProt P16681).
T2 construct: C-terminal His10 tag; purified by IMAC and size exclusion chromatography
T2 sequence (P16681 1-147): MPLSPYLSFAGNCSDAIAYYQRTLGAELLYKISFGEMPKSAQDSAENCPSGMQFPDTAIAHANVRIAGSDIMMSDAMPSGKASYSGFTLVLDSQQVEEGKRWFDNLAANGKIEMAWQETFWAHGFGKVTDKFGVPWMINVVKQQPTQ
Put plainly: surface plasmon resonance. The format is binding. From the text:
surface plasmon resonance on YjdN | Direct binding of CFX to YjdN or YbaA was further assessed by surface plasmon resonance

Regarding `O=C(O)c1cn(C2CC2)c2cc(N3CCNCC3)c(F)cc2c1=O` [compound 1, Ciprofloxacin], the Kd came out at 1000 ± 340 nM in assay [1] and 1400 ± 620 nM in assay [2].

By Kd is commonly meant the concentration at which binding is half-saturated.
